Results: PMC11101630

Key:
[1] = system: RhoBAST G46A (RNA, aptamer) GGAACCUCCGCGAAAGCGGUGAAGGAGAGGCGCAAAGUUAACCGCCUCAGGUUCC; assay: ITC; conditions: K+ 100 mM; Mg2+ concentration not given; 20 mM Tris-HCl pH 7.5, 25 °C; 6.2 x K of WT
[2] = system: RhoBAST G47A (RNA, aptamer) GGAACCUCCGCGAAAGCGGUGAAGGAGAGGCGCAAGAUUAACCGCCUCAGGUUCC; assay: ITC; conditions: K+ 100 mM; Mg2+ concentration not given; 20 mM Tris-HCl pH 7.5, 25 °C; 26.8 x K of WT
[3] = system: RhoBAST A33C (RNA, aptamer) GGAACCUCCGCGAAAGCGGUGACGGAGAGGCGCAAGGUUAACCGCCUCAGGUUCC; assay: ITC; conditions: K+ 100 mM; Mg2+ concentration not given; 20 mM Tris-HCl pH 7.5, 25 °C; similar to WT
[4] = system: RhoBAST G47C (RNA, aptamer) GGAACCUCCGCGAAAGCGGUGAAGGAGAGGCGCAAGCUUAACCGCCUCAGGUUCC; assay: ITC; conditions: K+ 100 mM; Mg2+ concentration not given; 20 mM Tris-HCl pH 7.5, 25 °C; 100 μM TMR-DN titrated into 10 μM RNA
[5] = system: RhoBAST A50U (RNA, aptamer) GGAACCUCCGCGAAAGCGGUGAAGGAGAGGCGCAAGGUUUACCGCCUCAGGUUCC; assay: ITC; conditions: K+ 100 mM; Mg2+ concentration not given; 20 mM Tris-HCl pH 7.5, 25 °C, nM inferred from ΔG
[6] = system: RhoBAST C52A (RNA, aptamer) GGAACCTCCGCGAAAGCGGUGAAGGAGAGGCGCAAGGUUAAACGCCUCAGGUUCC; assay: ITC; conditions: K+ 100 mM; Mg2+ concentration not given; 20 mM Tris-HCl pH 7.5, 25 °C; 46 x K of WT
[7] = system: RhoBAST C52G (RNA, aptamer) GGAACCTCCGCGAAAGCGGUGAAGGAGAGGCGCAAGGUUAAGCGCCUCAGGUUCC; assay: ITC; conditions: K+ 100 mM; Mg2+ concentration not given; 20 mM Tris-HCl pH 7.5, 25 °C; 100 μM TMR-DN titrated into 10 μM RNA
[8] = system: RhoBAST A33G (RNA, aptamer) GGAACCUCCGCGAAAGCGGUGAGGGAGAGGCGCAAGGUUAACCGCCUCAGGUUCC; assay: ITC; conditions: K+ 100 mM; Mg2+ concentration not given; 20 mM Tris-HCl pH 7.5, 25 °C; similar to WT
[9] = system: RhoBAST G31C (RNA, aptamer) GGAACCTCCGCGAAAGCGGUCAAGGAGAGGCGCAAGGUUAACCGCCUCAGGUUCC; assay: ITC; conditions: K+ 100 mM; Mg2+ concentration not given; 20 mM Tris-HCl pH 7.5, 25 °C; 100 μM TMR-DN titrated into 10 μM RNA
[10] = system: RhoBAST C8G (RNA, aptamer) GGAACCUGCGCGAAAGCGGUGAAGGAGAGGCGCAAGGUUAACCGCCUCAGGUUCC; assay: ITC; conditions: K+ 100 mM; Mg2+ concentration not given; 20 mM Tris-HCl pH 7.5, 25 °C; affinity not prominently reduced
[11] = system: RhoBAST L2-U1 (L2'-U1; RhoBAST-U1A Loop) (RNA, aptamer) GGAACCUCCGCCCAUUGCACUCCGGGCGGUGAAGGAGAGGCGCAAGGUUAACCGCCUCAGGUUCC; assay: X-ray crystal structure, 2.75 Å; conditions: Mg2+; co-crystal with U1A protein
[12] = system: RhoBAST A36C (RNA, aptamer) GGAACCUCCGCGAAAGCGGUGAAGGCGAGGCGCAAGGUUAACCGCCUCAGGUUCC; assay: ITC; conditions: K+ 100 mM; Mg2+ concentration not given; 20 mM Tris-HCl pH 7.5, 25 °C; 40 x K of WT
[13] = system: RhoBAST WT (RNA, aptamer) GGAACCUCCGCGAAAGCGGUGAAGGAGAGGCGCAAGGUUAACCGCCUCAGGUUCC; assay: ITC; conditions: K+ 100 mM, Mg2+ 0.5 mM; 20 mM Tris-HCl pH 7.5, 25 °C; no binding observed without Mg2+
[14] = system: RhoBAST U48C (RNA, aptamer) GGAACCUCCGCGAAAGCGGUGAAGGAGAGGCGCAAGGCUAACCGCCUCAGGUUCC; assay: ITC; conditions: K+ 100 mM; Mg2+ concentration not given; 20 mM Tris-HCl pH 7.5, 25 °C; 1.3 x K of WT
[15] = system: RhoBAST U49A (RNA, aptamer) GGAACCUCCGCGAAAGCGGUGAAGGAGAGGCGCAAGGUAAACCGCCUCAGGUUCC; assay: ITC; conditions: K+ 100 mM; Mg2+ concentration not given; 20 mM Tris-HCl pH 7.5, 25 °C; 100 x K of WT
[16] = system: RhoBAST L3'-U1 (RNA, aptamer) GGAACCUCCGCGAAAGCGGUGAAGGAGAGGCCAUUGCACUCCGGCCUCAGGUUCC; assay: binding assay in Supplementary Fig. 1b
[17] = system: RhoBAST L2-U1 (L2'-U1; RhoBAST-U1A Loop) (RNA, aptamer) GGAACCUCCGCCCAUUGCACUCCGGGCGGUGAAGGAGAGGCGCAAGGUUAACCGCCUCAGGUUCC; assay: binding assay in Supplementary Fig. 1b; conditions: K+ 100 mM, Mg2+ 10 mM assumed; 20 mM Tris-HCl pH 7.5, 25 °C, nM inferred from ΔG high affinity as wild type
[18] = system: RhoBAST A36U (RNA, aptamer) GGAACCUCCGCGAAAGCGGUGAAGGUGAGGCGCAAGGUUAACCGCCUCAGGUUCC; assay: ITC; conditions: K+ 100 mM; Mg2+ concentration not given; 20 mM Tris-HCl pH 7.5, 25 °C; 3.5 x K of WT
[19] = system: RhoBAST G37A (RNA, aptamer) GGAACCUCCGCGAAAGCGGUGAAGGAAAGGCGCAAGGUUAACCGCCUCAGGUUCC; assay: ITC; conditions: K+ 100 mM; Mg2+ concentration not given; 20 mM Tris-HCl pH 7.5, 25 °C; affinity not prominently reduced
[20] = system: RhoBAST G35A (RNA, aptamer) GGAACCTCCGCGAAAGCGGUGAAGAAGAGGCGCAAGGUUAACCGCCUCAGGUUCC; assay: ITC; conditions: K+ 100 mM; Mg2+ concentration not given; 20 mM Tris-HCl pH 7.5, 25 °C; 100 μM TMR-DN titrated into 10 μM RNA
[21] = system: RhoBAST U30C/A36C (RNA, aptamer) GGAACCUCCGCGAAAGCGGCGAAGGCGAGGCGCAAGGUUAACCGCCUCAGGUUCC; assay: ITC; conditions: K+ 100 mM; Mg2+ concentration not given; 20 mM Tris-HCl pH 7.5, 25 °C; 28 x K of WT
[22] = system: RhoBAST A51U (RNA, aptamer) GGAACCUCCGCGAAAGCGGUGAAGGAGAGGCGCAAGGUUAUCCGCCUCAGGUUCC; assay: ITC; conditions: K+ 100 mM; Mg2+ concentration not given; 20 mM Tris-HCl pH 7.5, 25 °C, nM inferred from ΔG
[23] = system: RhoBAST G35C/C52G (RNA, aptamer) GGAACCTCCGCGAAAGCGGUGAAGCAGAGGCGCAAGGUUAAGCGCCUCAGGUUCC; assay: ITC; conditions: K+ 100 mM; Mg2+ concentration not given; 20 mM Tris-HCl pH 7.5, 25 °C; 100 μM TMR-DN titrated into 10 μM RNA
[24] = system: RhoBAST ∆U7 (RNA, aptamer) GGAACCCCGCGAAAGCGGUGAAGGAGAGGCGCAAGGUUAACCGCCUCAGGUUCC; assay: ITC; conditions: K+ 100 mM; Mg2+ concentration not given; 20 mM Tris-HCl pH 7.5, 25 °C; affinity not prominently reduced
[25] = biological target: U1A (U1 RNA-binding protein, co-crystallization chaperone) (human, UniProt P09012 1-102); assay: ITC; TMR-DN presence in this assay not stated; ITC: 20 mM Tris-HCl pH 7.5, 100 mM KCl, 0-10 mM MgCl2, 25 C (described for RNA-fluorophore titrations; U1A conditions not separately given); conditions: protein: recombinant; four-way junction; U1A hairpin loop
Chain of U1A (U1 RNA-binding protein, co-crystallization chaperone) (P09012 1-102): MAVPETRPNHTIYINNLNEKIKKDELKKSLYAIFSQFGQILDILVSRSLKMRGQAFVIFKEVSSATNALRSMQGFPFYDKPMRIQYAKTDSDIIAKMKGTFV

CN(C)c1ccc2c(-c3ccc(C(=O)NCCOCCOCCNc4ccc([N+](=O)[O-])cc4[N+](=O)[O-])cc3C(=O)[O-])c3ccc(=[N+](C)C)cc-3oc2c1
KD [1]: 217 nM
KD [2]: 931 nM
KD [3]: 65.5 nM
binding [4]: no
KD [5]: 3590 nM
KD [6]: 1600 nM
binding [7]: no
KD [8]: 35.1 nM
binding [9]: no
KD [10]: 47 nM
binding [11]: yes
KD [12]: 1400 nM
KD [13]: ~ 24 nM
KD [14]: 45.5 nM
KD [15]: 3510 nM
binding [16]: no
KD [17]: 35.5 ± 5.69 nM
KD [18]: 122 nM
KD [19]: 83 nM
binding [20]: no
KD [21]: 976 nM
KD [22]: 1060 nM
binding [23]: no
KD [24]: 56.9 nM

B1: RhoBAST-U1A Loop (L2'-U1) (structured_RNA)
RNA: GGAACCUCCGCCCAUUGCACUCCGGGCGGUGAAGGAGAGGCGCAAGGUUAACCGCCUCAGGUUCC
Kd [25]: 7.94 ± 1.74 nM
